For one data set, the system named is HT-29. Briefly: Cytotoxicity against human HT-29 cells assessed as growth inhibition at 25 uM by MTT assay. The class given is functional. As to conditions: read-out: GI.
Data set [1] concerns MDA-MB-231. Briefly: Cytotoxicity against human MDA-MB-231 cells assessed as growth inhibition at 25 uM by MTT assay. Conditions: read-out: GI. The class given is functional. (Tetrazolium assays rely on reduction of a dye to a coloured formazan, in cell work by metabolically active cells.)
Data set [2] is described as follows: Cytotoxicity against HEK293 cells assessed as cell growth at 25 uM by MTT assay. The class given is cell-based. Conditions: human, read-out: Activity.
For data set [3], the system named is Mycolicibacterium smegmatis. Briefly: Anti-tubercular activity against Mycobacterium smegmatis str. MC2 155 at 30 uM. The class given is functional, organism-based.
The subject of data set [4] is Mycolicibacterium smegmatis. In words: Anti-tubercular activity against Mycobacterium smegmatis str. MC2 155. The class given is functional, organism-based.
The test system of data set [5] is Mycolicibacterium smegmatis. In words: Anti-tubercular activity against Mycobacterium smegmatis str. MC2 155 relative to untreated control. The class given is functional.
The subject of data set [6] is MDA-MB-231. Briefly: Cytotoxicity against human MDA-MB-231 cells assessed as growth inhibition by MTT assay. The class given is functional, cell-based.

Activity calls are given as the source filed them. No cut-off for these calls is given here.

As a reminder, the IC50 is the concentration at which inhibition is half-maximal.

On to `COc1ccc(OC)c(-c2nnc(N3CCCC3)s2)c1`, for which the inhibition of growth at 25 µM in the data set on HT-29 was determined as 18.8%; in the data set on MDA-MB-231 [1], 38.1%. Further, the viability at 25 µM in data set [2] is more than 74.5%. Moreover, the inhibition entry in data set [3] is “inactive”.
Take `CO[C@H]1/C=C/O[C@@]2(C)Oc3c(C)c(O)c4c(O)c(c(/C=N/N5CCN(C)CC5)c(O)c4c3C2=O)NC(=O)/C(C)=C\C=C\[C@H](C)[C@H](O)[C@@H](C)[C@@H](O)[C@@H](C)[C@H](OC(C)=O)[C@@H]1C` [RIFAMPIN]: the IC50 in data set [4] is 1.87 µM.
As for `COc1ccc(OC)c(-c2nnc(N3CCNCC3)s2)c1`, the figures for the inhibition of growth at 25 µM in the data set with HT-29 and in the data set on MDA-MB-231 [1] were 25.5% and 41.6%, respectively. In data set [4], this molecule had an IC50 of 88.1 µM. Besides, the “inhibition (INH)” value in data set [5] was “>=30%”. In data set [2], the viability at 25 µM is more than 74.5%.
For `COc1ccc(OC)c(-c2nnc(N3CCC(Cc4ccccc4)CC3)s2)c1`, the inhibition of growth at 25 µM with HT-29 was determined as 51%; in the data set on MDA-MB-231 [1], 33.6%. The same molecule showed an IC50 in data set [4] of 65.7 µM. Also, the “inhibition (INH)” value in data set [5] is reported as “>=30%”. Also, in data set [2], the viability at 25 µM is more than 74.5%.
As for `COc1ccc(OC)c(-c2nnc(NCc3ccc(Cl)cc3)s2)c1`, the inhibition of growth at 25 µM with HT-29 came out at 68.7%; in the data set with MDA-MB-231 [1] it was 53.8%. Besides, the IC50 in data set [4] is more than 100 µM. For the same molecule, in data set [5], the “inhibition (INH)” value was “>=30%”. For the same molecule, in data set [2], the viability at 25 µM was less than 74.5%.
As to `COc1ccc(OC)c(CNc2nnc(-c3cc(OC)ccc3OC)s2)c1`, the inhibition of growth at 25 µM in the data set with HT-29 was determined as 47.2%; in the data set with MDA-MB-231 [1], 30.2%. Further, the IC50 in data set [4] was more than 100 µM. For the same molecule, the “inhibition (INH)” value in data set [5] is given as “>=30%”. For the same molecule, the viability at 25 µM in data set [2] is more than 74.5%.
As for `COc1ccc(OC)c(-c2nnc(NCc3cccc(C(F)(F)F)c3)s2)c1`, the results for the inhibition of growth at 25 µM with HT-29 and in the data set on MDA-MB-231 [1] were 52.6% and 51.2%, respectively. The molecule further had an IC50 in data set [4] of 40.9 µM. Besides, the “inhibition (INH)” value in data set [5] was “>=30%”. Besides, the viability at 25 µM in data set [2] was less than 74.5%.
As to `COc1ccc(OC)c(-c2nnc(-n3ccnc3)s2)c1`, the inhibition of growth at 25 µM in the data set on HT-29 is 21%; in the data set with MDA-MB-231 [1], 33.5%. For the same molecule, the viability at 25 µM in data set [2] was more than 74.5%. Also, the inhibition result in data set [3] was “inactive”.
With `COc1ccc(OC)c(-c2nnc(NCc3ccccc3)s2)c1`, the inhibition of growth at 25 µM in the data set on HT-29 amounted to 68.3%; in the data set with MDA-MB-231 [1], 63%. The molecule further displayed an IC50 in data set [4] of 75.6 µM. The “inhibition (INH)” value in data set [5] was “>=30%”. In data set [2], the viability at 25 µM was less than 74.5%.
In the case of `NNC(=O)c1ccncc1` [ISONIAZID], the IC50 in data set [4] stood at 16 µM.
Consider `COc1ccc(OC)c(-c2nnc(N3CCOCC3)s2)c1`, for which the inhibition of growth at 25 µM in the data set with HT-29 was found to be 18.2%; with MDA-MB-231 [1] it was 31.2%. The molecule also gave an IC50 in data set [4] of more than 100 µM. Besides, the “inhibition (INH)” value in data set [5] is “>=30%”. Also, in data set [2], the viability at 25 µM is more than 74.5%.
On to `COc1ccc(OC)c(-c2nnc(N3CCCC(O)C3)s2)c1` (stereo not drawn), for which the inhibition of growth at 25 µM stood at 31.1% in the data set on HT-29 and 39.7% in the data set with MDA-MB-231 [1]. The molecule further displayed an IC50 in data set [4] of more than 100 µM. Further, the “inhibition (INH)” value in data set [5] is “>=30%”. For the same molecule, the viability at 25 µM in data set [2] is more than 74.5%.
In the case of `COc1ccc(CN2CCN(c3nnc(-c4cc(OC)ccc4OC)s3)CC2)cc1`, the values for the inhibition of growth at 25 µM with HT-29 and in the data set on MDA-MB-231 [1] were 39.8% and 36.5%, respectively. In addition, the IC50 in data set [4] came to 80.3 µM. In data set [5], the “inhibition (INH)” value is listed as “>=30%”. Moreover, in data set [2], the viability at 25 µM was more than 74.5%.
As to `COc1ccc(OC)c(-c2nnc(N3CCCCC3)s2)c1`, the inhibition of growth at 25 µM in the data set with HT-29 amounted to 3.67%; with MDA-MB-231 [1] it was 32.8%. For the same molecule, the viability at 25 µM in data set [2] is more than 74.5%. Further, the inhibition entry in data set [3] was “inactive”.
In the case of `COc1ccc(OC)c(-c2nnc(N3CCC(=O)CC3)s2)c1`, the inhibition of growth at 25 µM in the data set on HT-29 came to 33.7%; in the data set with MDA-MB-231 [1], 32.5%. Further, the IC50 in data set [4] is more than 100 µM. The “inhibition (INH)” value in data set [5] is “>=30%”. Moreover, in data set [2], the viability at 25 µM is more than 74.5%.
In the case of `COc1ccc(OC)c(-c2nnc(-c3ccc(C)c([N+](=O)[O-])c3)s2)c1`, the inhibition of growth at 25 µM in the data set on HT-29 is 51.9%; in the data set on MDA-MB-231 [1], 53.3%. For the same molecule, the viability at 25 µM in data set [2] was more than 74.5%. In data set [3], the inhibition result is “inactive”.
For the molecule `COc1ccc(OC)c(-c2nnc(NCc3ccc(Br)cc3)s2)c1`, the figures for the inhibition of growth at 25 µM with HT-29 and in the data set with MDA-MB-231 [1] were 45.4% and 51.5%, respectively. The molecule also had an IC50 in data set [4] of more than 100 µM. In data set [5], the “inhibition (INH)” value is listed as “>=30%”. For the same molecule, the viability at 25 µM in data set [2] is less than 74.5%.
On to `COc1cccc2c1C(=O)c1c(O)c3c(c(O)c1C2=O)C[C@@](O)(C(=O)CO)C[C@@H]3O[C@H]1C[C@H](N)[C@H](O)[C@H](C)O1` [DOXORUBICIN], for which the half-inhibitory concentration (IC50) with MDA-MB-231 [6] turned out to be 1 µM.
As to `COc1ccc(OC)c(-c2nnc(Cl)s2)c1`, the values for the inhibition of growth at 25 µM in the data set with HT-29 and in the data set on MDA-MB-231 [1] were 8.81% and 33.7%, respectively. Besides, the IC50 in data set [4] was 75.6 µM. In addition, the “inhibition (INH)” value in data set [5] is “>=30%”. Besides, the viability at 25 µM in data set [2] was more than 74.5%.
Take `COc1ccc(OC)c(-c2nnc(-n3ccc4cc(OC)ccc43)s2)c1`: the inhibition of growth at 25 µM was found to be 5.65% in the data set with HT-29 and 24.7% in the data set on MDA-MB-231 [1]. For the same molecule, the viability at 25 µM in data set [2] was more than 74.5%. In data set [3], the inhibition entry was “inactive”.
Turning to `COc1ccc(OC)c(-c2nnc(N)s2)c1`, the figures for the inhibition of growth at 25 µM in the data set on HT-29 and with MDA-MB-231 [1] were 20.6% and 32%, respectively. The molecule further registered an IC50 in data set [4] of more than 100 µM. Moreover, the “inhibition (INH)” value in data set [5] was “>=30%”. In data set [2], the viability at 25 µM was more than 74.5%.
Taken in the same sequence, the figures for `CCN1CCN(c2nnc(-c3cc(OC)ccc3OC)s2)CC1` were 9.91%, 34.6%, more than 100 µM, “>=30%” and more than 74.5%.
